Experimental data reported in patent US8445523B2, “Dioxo-imidazolidine derivatives, which inhibit the enzyme SOAT-1, and pharmaceutical and cosmetic compositions containing them” (Galderma Research & Development, priority 2009, dated 2013).
pIC50: −log10 of the molar value.

Target: T1, enzyme ACAT-1 (Homo sapiens, UniProt P35610)
T1 construct: endogenous in cells; host or cells: HepG2
T1 sequence (P35610 1-550): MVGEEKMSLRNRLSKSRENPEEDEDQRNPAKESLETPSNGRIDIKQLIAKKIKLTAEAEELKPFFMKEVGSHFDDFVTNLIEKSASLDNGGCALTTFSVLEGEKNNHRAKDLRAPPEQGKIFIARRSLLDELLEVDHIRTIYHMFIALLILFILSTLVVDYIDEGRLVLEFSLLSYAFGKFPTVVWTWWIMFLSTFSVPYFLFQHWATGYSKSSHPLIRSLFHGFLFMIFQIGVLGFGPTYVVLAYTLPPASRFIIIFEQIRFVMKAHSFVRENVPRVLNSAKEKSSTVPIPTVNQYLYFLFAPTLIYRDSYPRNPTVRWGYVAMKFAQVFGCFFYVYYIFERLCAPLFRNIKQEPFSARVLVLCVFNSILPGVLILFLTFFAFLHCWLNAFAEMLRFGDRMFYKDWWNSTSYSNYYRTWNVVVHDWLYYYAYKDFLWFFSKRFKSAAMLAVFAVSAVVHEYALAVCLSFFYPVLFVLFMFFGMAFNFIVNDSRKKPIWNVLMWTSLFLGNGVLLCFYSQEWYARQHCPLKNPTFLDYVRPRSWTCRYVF
Test: HepG2 NBD-cholesterol fluorescence test of inhibitory activity towards ACAT-1 (SOAT-1)
Format: cell-based
Details: HepG2 cells, NBD-cholesterol 1 μg/ml, incubation 6 hours at 37° C., fluorescence read (490/540 nm)
Description: The compounds (I) according to the invention, and also the pharmaceutically acceptable salts, solvates and/or hydrates thereof, have inhibitory properties on the enzyme SOAT-1. This inhibitory activity on the enzyme SOAT-1 is measured according to a HepG2 primary enzymatic test, as described in Example 11.
The compounds of formula (I) according to the invention were subjected to a test for evaluating their inhibitory activity towards the enzyme ACAT-1, inspired by the following publication: “Identification of ACAT1- and ACAT2-specific inhibitors using a novel, cell based fluorescence assay: individual ACAT uniqueness”, J. Lipid. Res. (2004) vol. 45, pages 378-386.
The principle of this test is based on the use of NBD-cholesterol, a cholesterol analogue whose fluorescence depends on its environment. When this molecule is in a polar environment, it is weakly fluorescent, whereas in a non-polar environment, it is strongly fluorescent. Free NBD-cholesterol becomes inserted in cell membranes and is weakly fluorescent in this polar environment. When NBD-cholesterol is esterified with ACAT, the NBD-cholesterol ester enters non-polar lipid droplets and is then strongly fluorescent.
The method below is applied: HepG2 cells are incubated in the presence of NBD-cholesterol (1 μg/ml) and of the test compound of formula (I) in black transparent-bottomed 96-well plates, at a rate of 30 000 cells per well. After incubation for 6 hours at 37° C. under 5% CO2, the medium is removed by turning upside-down and the cells are washed with twice 100 μl of PBS. After addition of 50 μl of lysis buffer (10 mM NaPO4, 1% Igepal), the plates are shaken for 5 minutes and the fluorescence is read (excitation at 490 nm, emission at 540 nm) on a Fusion machine (Perkin-Elmer).

SMILES | pIC50
CC(C)c1cccc(C(C)C)c1NC(=O)CN1C(=O)N(c2cccnc2)C2(CCCCC2)C1=O [compound (1)] | 8.05
COc1ccc(N2C(=O)N(CC(=O)Nc3c(C(C)C)cccc3C(C)C)C(=O)C23CCCCC3)cn1 [compound (2)] | 8.52
Cc1cnc(N2C(=O)N(CC(=O)Nc3c(C(C)C)cccc3C(C)C)C(=O)C23CCCCC3)cn1 [compound (3)] | 8.26
Cc1ccc(N2C(=O)N(CC(=O)Nc3c(C(C)C)cccc3C(C)C)C(=O)C23CCCCC3)cn1 [compound (4), N-(2,6-Diisopropylphenyl)-2-[1-(6-methyl-pyridin-3-yl)-2,4-dioxo-1,3-diazaspiro[4.5]dec-3-yl]-acetamide] | 9.22
Cc1ccc(N2C(=O)N(CC(=O)Nc3c(C(C)C)cccc3C(C)C)C(=O)C23CCOCC3)cn1 [compound (5)] | 7.10
